Experimental data from patent US8115014B2, “Ethynylindole compounds” (ONO Pharmaceuticals, Co., Ltd., priority 2008, dated 2012).

Tests used:
[1] = target: T1, human cysLT2 receptor (Homo sapiens, UniProt Q9NS75); experiment: Effects of compounds on LTD4-induced increases in intracellular calcium levels, HEK293 cells expressing the human cysLT2 receptor; type: cell-based; details: 100 nM LTD4, compound applied 30 minutes prior, read-out: IC50 (50% inhibitory concentration), LTD4-induced intracellular calcium influx
T1 construct: expressed in transfected cells; host or cells: HEK293 cells
T1 sequence (Q9NS75 1-346): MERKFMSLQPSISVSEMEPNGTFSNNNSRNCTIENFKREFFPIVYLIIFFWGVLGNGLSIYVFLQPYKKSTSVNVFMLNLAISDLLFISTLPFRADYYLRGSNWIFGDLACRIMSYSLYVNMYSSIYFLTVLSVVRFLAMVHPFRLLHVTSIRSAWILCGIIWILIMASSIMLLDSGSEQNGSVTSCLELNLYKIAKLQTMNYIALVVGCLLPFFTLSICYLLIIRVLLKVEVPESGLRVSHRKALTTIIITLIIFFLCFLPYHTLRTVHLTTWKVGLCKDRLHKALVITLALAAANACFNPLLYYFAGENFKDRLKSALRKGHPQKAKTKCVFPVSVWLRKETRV
Method: (§1) The cells were incubated in the culture medium containing 7.5 μM Fura2-AM, 20 mM 2-[4-(2-hydroxyethyl)-1-piperazinyl]ethanesulfonic acid (HEPES) and 2.5 mM probenecid, at 37° C. for about 60 minutes. The Fura2-AM-loaded cells were washed once with assay buffer (Hank's buffer containing 20 mM HEPES), and the LTD4-induced intracellular calcium influx was measured using a FDSS2000 (manufactured by Hamamatsu Photonics K.K.). The compounds of the present invention were applied 30 minutes prior to LTD4 stimulation, and time-course changes of the response provoked by 100 nM of LTD4 was measured over 150 seconds.

[2] = target: T2, human cysLT1 receptor (Homo sapiens, UniProt Q9Y271); experiment: Effects of compounds on LTD4-induced increase in intracellular calcium levels, CHO cells expressing the human cysLT1 receptor; type: cell-based; details: 100 nM LTD4, compound applied 30 minutes prior, read-out: IC50 (50% inhibitory concentration), LTD4-induced intracellular calcium influx
T2 construct: expressed in transfected cells; host or cells: Chinese hamster ovary (CHO) cells
T2 sequence (Q9Y271 1-337): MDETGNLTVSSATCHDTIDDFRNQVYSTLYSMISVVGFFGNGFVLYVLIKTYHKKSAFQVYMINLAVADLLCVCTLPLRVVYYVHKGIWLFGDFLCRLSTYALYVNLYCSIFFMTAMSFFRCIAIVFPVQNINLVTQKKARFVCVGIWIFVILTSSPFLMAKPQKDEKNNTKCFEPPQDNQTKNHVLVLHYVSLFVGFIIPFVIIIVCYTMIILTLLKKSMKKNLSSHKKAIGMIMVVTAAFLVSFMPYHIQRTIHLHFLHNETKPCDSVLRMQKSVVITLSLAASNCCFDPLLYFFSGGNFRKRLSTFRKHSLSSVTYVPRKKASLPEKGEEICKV
Method: as §1, with “Chinese hamster ovary (CHO) cells expressing the human cysLT1 receptor were seeded at a density of 0.4×10^5 cells/well into a 96-well plate and cultured in an F-12 medium at 37° C. in the presence of 5% CO2 for 24 hours. The cells” for “The cells”

SMILES	IC50 [1] [nM]	IC50 [2] [nM]
Cc1c(CCCC(=O)O)c2cccc(C#Cc3ccc(OCCCCc4c(F)c(F)c(F)c(F)c4F)cc3)c2n1CCCC(=O)O [Example 9, 4,4′-[2-methyl-7-({4-[4-(pentafluorophenyl)butoxy]phenyl}ethynyl)-1H-indole-1,3-diyl]dibutanoic Acid]	2.8	1.1
Cc1c(CCCC(=O)O)c2cccc(C#Cc3ccc(OCCCCc4cc(F)c(F)c(F)c4F)cc3)c2n1CC(=O)O [Example 11, 4-[1-(carboxymethyl)-2-methyl-7-({4-[4-(2,3,4,5-tetrafluorophenyl)butoxy]phenyl}ethynyl)-1H-indol-3-yl]butanoic Acid]	0.77	0.21
Cc1c(Cl)cccc1CCCCOc1ccc(C#Cc2cccc3c(CC4(CC(=O)O)CC4)c(C)n(CC(=O)O)c23)cc1 [Example 21 (1), (1-{[1-(carboxymethyl)-7-({4-[4-(3-chloro-2-methylphenyl)butoxy]phenyl}ethynyl)-2-methyl-1H-indol-3-yl]methyl}cyclopropyl)acetic Acid]	2.1	0.16
Cc1c(F)cccc1CCCCOc1ccc(C#Cc2cccc3c(CC4(CC(=O)O)CC4)c(C)n(CC(=O)O)c23)cc1 [Example 21 (2), [3-{[1-(carboxymethyl)cyclopropyl]methyl}-7-({4-[4-(3-fluoro-2-methylphenyl)butoxy]phenyl}ethynyl)-2-methyl-1H-indol-1-yl]acetic Acid]	2.9	0.24
